Laboratory results from patent publication US6410546B1, “Use of MKC-442 in combination with other antiviral agents” (Triangle Pharmaceuticals, Inc., priority 1997, dated 2002).

Columns and labels:
HIV [1] = conditions: as reported in the prior art; cited from earlier work
in vivo = assay: in vivo; set-up: species or system rats; conditions: rat
Excerpt: In rats, for example, the concentration of MKC-442 in the brain was 100% of that seen in the plasma.

[2] = Phase I study, single escalating doses: pharmacokinetics and tolerance; assay type: in vivo, HIV-infected volunteers
Excerpt: A Phase I study evaluated the pharmacokinetics and tolerance of single escalating doses of MKC-442 in HIV-infected volunteers.

HIV [3] = assay: Phase I/II double-blind, placebo controlled trial of repeated multiple oral doses
Description: Preliminary data from a Phase I/II double-blind, placebo controlled trial designed to evaluate the safety and efficacy of repeated multiple oral doses of MKC-442 in HIV-infected patients has now also been evaluated. A total of 49 patients were treated with MKC-442 for up to two months. Doses ranging from 100 mg to 1000 mg twice a day were given to groups of six to eight patients at each dosage level.

[4] = tested on: wild-type (drug-sensitive) and several mutant strains of HIV; assay: Cell culture assay systems, inhibition of HIV replication (alone and in drug combinations); assay type: cell-based
Excerpt: MKC-442, although a nucleoside analogue, functions as a non-nucleoside reverse transcriptase inhibitor. It is considered an allosteric inhibitor because it appears to exert its activity by binding to an “allosteric position”, i.e., one other than the binding site, of the enzyme.

| SMILES | activity against HIV (HIV [1]) | toxicity (HIV [1]) | Kp (in vivo) | penetration into the central nervous system (in vivo) | oral bioavailability (in vivo; po) | concentrations of the drug in the plasma ([2]; groups receiving higher doses, compared with levels required to suppress 90% of the virus in culture) | tolerance ([2]; single escalating doses, HIV-infected volunteers) | viral load reduction (average) (HIV [3]; 705 mg and 1000 mg twice a day, all patients, after one week) [%] | tolerability (HIV [3]; over 308 patient-weeks of drug exposure, 100 mg to 1000 mg twice a day) | combination effect on HIV replication ([4]; three drug combination with AZT and saquinavir) | combination effect on HIV replication ([4]; two drug combination with AZT) | combination effect on HIV replication ([4]; two drug combination with DDI) | potency compared with nevirapine ([4]; wild-type and mutant strains of HIV) | ability to inhibit HIV replication ([4]; wild-type and mutant strains resistant to established non-nucleoside reverse transcriptase inhibitors) |
| --- | --- | --- | --- | --- | --- | --- | --- | --- | --- | --- | --- | --- | --- | --- |
| Nc1nc(=O)n([C@@H]2CS[C@H](CO)O2)cc1F (relative stereo) [FTC, cis-2-hydroxymethyl-5-(5-fluorocytosin-1-yl)-1,3-oxathiolane] | potent HIV activity | – | – | – | – | – | – | – | – | – | – | – | – | – |
| Nc1ccn(C2CSC(CO)O2)c(=O)n1 (racemic) [BCH-189, 2-hydroxymethyl-5-(cytosin-1-yl)-1,3-oxathiolane] | approximately the same activity against HIV as AZT | little toxicity | – | – | – | – | – | – | – | – | – | – | – | – |
| CCOCn1c(Cc2ccccc2)c(C(C)C)c(=O)[nH]c1=O [MKC-442, 6-benzyl-1-(ethoxymethyl)-5-isopropyluracil] | – | – | 1 | excellent | good | mich higher than the levels required to suppress 90% of the virus in culture | generally well tolerated | 96 | well tolerated | synergistic inhibition | synergistic inhibition | synergistic inhibition | greater potency than nevirapine | retained much of its ability to inhibit HIV replication |
